Source: the NIST ThermoML archive (doi:10.1021/je400260c)
± gives the expanded uncertainty stated by the source.

conditions: Crystal; DTA

Row | Normal melting temperature | Structure (SMILES)
1 | 44.6 ± 0.9 °C | CCCCCCCCCCCC(=O)O [dodecanoic acid]
2 | 63 ± 1.1 °C | CCCCCCCCCCCCCCCC(=O)O [hexadecanoic acid]
3 | 69.8 ± 0.5 °C | CCCCCCCCCCCCCCCCCC(=O)O [octadecanoic acid]
4 | 54.4 ± 0.5 °C | CCCCCCCCCCCCCC(=O)O [tetradecanoic acid]
